Measured values reported in patent US6004994A, “Heterocyclic diarylmethylene derivatives, methods of preparing them and their uses in therapeutics” (Laboratoires UPSA, priority 1998, dated 1999).

Experiments:
[1] = target: T1, COX-1 (Ovis aries, UniProt P05979); experiment: Inhibition of COX-1 enzymatic activity (PGE2 produced determined by EIA); assay type: biochemical, ram (purified enzyme from ram seminal vesicles); conditions: 10^-4 M; ram seminal vesicle COX-1, arachidonic acid 6 μM
T1 construct: purified enzyme from ram seminal vesicles; from tissue; host or cells: ram seminal vesicles
T1 sequence (P05979 25-600): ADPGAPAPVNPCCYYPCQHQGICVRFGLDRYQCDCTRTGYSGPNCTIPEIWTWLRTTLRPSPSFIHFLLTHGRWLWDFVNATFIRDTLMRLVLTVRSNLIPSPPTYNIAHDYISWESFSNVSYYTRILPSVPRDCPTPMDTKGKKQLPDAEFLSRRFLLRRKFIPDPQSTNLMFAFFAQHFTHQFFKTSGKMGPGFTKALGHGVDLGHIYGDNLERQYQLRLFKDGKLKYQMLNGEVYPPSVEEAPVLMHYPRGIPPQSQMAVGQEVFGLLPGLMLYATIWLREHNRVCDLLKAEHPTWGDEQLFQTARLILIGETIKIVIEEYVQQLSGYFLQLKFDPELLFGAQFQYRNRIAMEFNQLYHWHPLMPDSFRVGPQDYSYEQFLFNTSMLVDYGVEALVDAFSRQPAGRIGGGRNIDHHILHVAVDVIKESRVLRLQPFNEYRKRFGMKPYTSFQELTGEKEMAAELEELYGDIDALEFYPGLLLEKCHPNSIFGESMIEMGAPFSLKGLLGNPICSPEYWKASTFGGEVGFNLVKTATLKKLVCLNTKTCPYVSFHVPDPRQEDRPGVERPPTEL
Description: (§1) The molecule studied is preincubated for 10 minutes at 25° C. with 2 U of COX-1 (purified enzyme from ram seminal vesicles) or 1 U of COX-2 (purified enzyme from ewe placenta). Arachidonic acid (6 μM for COX-1, 4 μM for COX-2) is added to the reaction medium and incubation is carried out for 5 minutes at 25° C. When incubation has ended, the enzymatic reaction is stopped by the addition of 1 N HCl and the PGE2 produced is deter mined by EIA. […] For other examples, the results are expressed in the form of IC50, the concentration in μM corresponding to 50% inhibition of the maximal enzymatic activity upon COX-1 and COX-2 (n=1 to 4 determinations).

[2] = target: T2, COX-2 (Ovis aries, UniProt P79208); experiment: Inhibition of COX-2 enzymatic activity (PGE2 produced determined by EIA); assay type: biochemical, ewe (purified enzyme from ewe placenta); conditions: ewe placenta COX-2, arachidonic acid 4 μM; for inhibition at 10 µM: 10^-5 M; for IC50: n=1 to 4 determinations; for inhibition at 1 µM: at 10^-6 M
T2 construct: purified enzyme from ewe placenta; from tissue; host or cells: ewe placenta
T2 sequence (P79208 17-603): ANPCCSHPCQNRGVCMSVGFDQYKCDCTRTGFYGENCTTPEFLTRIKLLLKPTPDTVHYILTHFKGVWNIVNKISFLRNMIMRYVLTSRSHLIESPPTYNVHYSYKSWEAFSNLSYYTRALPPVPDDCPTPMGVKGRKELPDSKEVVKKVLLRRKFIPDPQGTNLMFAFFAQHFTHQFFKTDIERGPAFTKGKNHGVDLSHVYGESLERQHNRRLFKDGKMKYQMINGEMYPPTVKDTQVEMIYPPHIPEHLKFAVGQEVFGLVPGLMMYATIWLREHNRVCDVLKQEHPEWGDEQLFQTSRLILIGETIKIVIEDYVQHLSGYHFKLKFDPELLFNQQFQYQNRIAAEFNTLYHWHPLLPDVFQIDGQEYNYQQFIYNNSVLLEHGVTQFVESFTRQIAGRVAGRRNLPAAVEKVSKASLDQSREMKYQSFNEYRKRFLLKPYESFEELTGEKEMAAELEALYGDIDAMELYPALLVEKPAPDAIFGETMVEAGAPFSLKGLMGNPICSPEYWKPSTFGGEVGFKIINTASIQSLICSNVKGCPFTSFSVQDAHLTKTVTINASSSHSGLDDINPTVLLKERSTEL
Description: as §1

[3] = system: arthritis with kaolin; experiment: Analgesic activity: arthritis with kaolin in rats; assay type: in vivo; conditions: rat, oral, thirty minutes after intra-articular kaolin; dose inducing 50% decrease of the maximal quotations of control
Description: The analgesic activity of the compounds of the Examples was evaluated according to the method of arthritis with kaolin.
The analgesic activity is evaluated in rats by the test of arthritis with kaolin. Thirty minutes after intra-articular administration of an aqueous 10% suspension of kaolin, the product is administered orally at a rate of 1 ml 100 g (n=10 animals per dose). The results are expressed in the form of ED50, the dose in mg/kg which induces 50% decrease of the maximal quotations obtained in the control batch, calculated by linear regression.

## CN1CC/C(=C(/c2ccc(Cl)cc2)c2ccc(S(C)(=O)=O)cc2)C1=O [28 Z isomer]
[1]
  inhibition at 100 µM: 6%
[2]
  inhibition at 10 µM: 77%
  IC50: 2940 nM

## CS(=O)(=O)c1ccc(/C(=C2\CCN(Cc3ccccc3)C2=O)c2ccc(Cl)cc2)cc1 [31 Z isomer]
[3]
  ED50: 18.5 mg/kg
[1]
  inhibition at 100 µM: 88%
[2]
  inhibition at 10 µM: 88%

## CS(=O)(=O)c1ccc(C(=C2CCN(Cc3ccccc3Cl)C2=O)c2ccc(Cl)cc2)cc1 [63 Z isomer]
[1]
  inhibition at 100 µM: 83%
[2]
  inhibition at 10 µM: 88%

## CC(=O)OCCN1CC/C(=C(/c2ccc(Cl)cc2)c2ccc(S(C)(=O)=O)cc2)C1=O [30 Z isomer]
[2]
  inhibition at 10 µM: 56%

## CS(=O)(=O)c1ccc(C(=C2CCN(Cc3ccccc3)C2=O)c2ccc(Cl)c(Cl)c2)cc1 [61 Z isomer]
[2]
  inhibition at 1 µM: 80%
  IC50: 229 nM

## CS(=O)(=O)c1ccc(C(=C2CCN(CCc3ccccc3)C2=O)c2ccc(Cl)cc2)cc1 [60 Z isomer]
[1]
  inhibition at 100 µM: 32%
[2]
  inhibition at 1 µM: 52%

## CS(=O)(=O)c1ccc(/C(=C2\N=C(c3ccccc3)OC2=O)c2ccc(Cl)cc2)cc1 [77 E isomer]
[1]
  inhibition at 100 µM: 90%
[2]
  inhibition at 10 µM: 77%
  IC50: 2830 nM

## COc1ccc(/C(=C2/CCN(C)C2=O)c2ccc(S(C)(=O)=O)cc2)cc1 [55 E isomer]
[2]
  inhibition at 10 µM: 44%

## CS(=O)(=O)c1ccc(/C(=C2\CCSC2=O)c2ccc(Cl)cc2)cc1 [80 Z isomer]
[3]
  ED50: 13.7 mg/kg
[2]
  IC50: 120 nM

## CS(=O)(=O)c1ccc(C(=C2CCN(Cc3ccc(Br)cc3)C2=O)c2ccc(Cl)cc2)cc1 [65 Z isomer]
[2]
  inhibition at 10 µM: 83%

## CCN1CC/C(=C(/c2ccc(Cl)cc2)c2ccc(S(C)(=O)=O)cc2)C1=O [32 Z isomer]
[1]
  inhibition at 100 µM: 13%
[2]
  inhibition at 10 µM: 84%
  IC50: 2530 nM

## CN1CC/C(=C(\c2ccc(S(N)(=O)=O)cc2)c2ccc(Cl)c(Cl)c2)C1=O [33 Z isomer]
[2]
  inhibition at 1 µM: 70%
  IC50: 393 nM

## CN1CC/C(=C(\c2ccc(S(C)(=O)=O)cc2)c2ccc(Cl)c(Cl)c2)C1=O [53 Z isomer]
[1]
  inhibition at 100 µM: 36%
[2]
  inhibition at 10 µM: 92%

## CS(=O)(=O)c1ccc(/C(=C2\CCN(C3CCCCC3)C2=O)c2ccc(Cl)cc2)cc1 [29 Z isomer]
[1]
  inhibition at 100 µM: 72%
[2]
  inhibition at 10 µM: 86%

## Cc1cc(/C(=C2/CCN(C)C2=O)c2ccc(S(C)(=O)=O)cc2)ccc1F [56 Z isomer]
[2]
  inhibition at 10 µM: 53%

## CS(=O)(=O)c1ccc(C(=C2CCN(Cc3cccc(Cl)c3)C2=O)c2ccc(Cl)cc2)cc1 [62 Z isomer]
[1]
  inhibition at 100 µM: 79%
[2]
  inhibition at 10 µM: 91%

## Cc1cccc(CN2CCC(=C(c3ccc(Cl)cc3)c3ccc(S(C)(=O)=O)cc3)C2=O)c1 [64 Z isomer]
[2]
  inhibition at 10 µM: 59%

## CS(=O)(=O)c1ccc(/C(=C2\SC(=S)NC2=O)c2ccc(Cl)cc2)cc1 [78 E isomer]
[1]
  inhibition at 100 µM: 37%
[2]
  inhibition at 10 µM: 72%
  IC50: 1540 nM
